Experimental findings from patent US6627218B2, “Cationic amphiphiles of cholesterol” (The University of Tennessee Research Foundation, priority 1991, dated 2003) are described below.

One may read the IC50 as the point on the concentration scale where inhibition reaches its midpoint. In general, melting point refers to the temperature, or range, at which the solid turns liquid.

Counter-ions that a name gives are not always drawn.

In series [1] the test system is mouse L929 cells. As to the kind of experiment: Transfection of L929 cells with pUCSV2CAT, CAT activity. The class given is cell-based. Also noted: Relative CAT Activity: scale not given here. The following applies: for Relative CAT Activity: dispersion with co-lipid DOPE, plasmid pUCSV2CAT, L929 cells. The procedure: (§1) The cationic cholesterol derivatives of the invention were mixed with a phospholipid co-lipid in chloroform solution at different molar ratios. The solvent was removed by evaporation under a stream of N2 gas and desiccated in vacuo for at least 30 minutes. The dry lipid film was hydrated in 20 mM Hepes buffer, pH 7.8, overnight. The suspension was sonicated in a bath-type sonicator (Laboratory Supplies, Hicksville, N.Y.) to generate small particle dispersions (average diameter=150 nm). The co-lipid is phosphatidylethanolamine.
Plasmid pUCSV2CAT (approximately 5kb in size) containing the structural gene of E. coli chloramphenicol acetyl transferase (CAT) driven by the SV40 virus early promoter was used as a model for the polyanions to be delivered by the cationic lipid dispersions. DNA was mixed with the cationic lipid dispersions of the invention in 1 ml serum-free M199 medium or McCoy's medium to form DNA/lipid complex. Cultured mammalian cells of about 80-100% confluency in a 6-well plate were washed once with serum-free medium. The DNA/lipid complex was added to the washed cells which were incubated at 37° C. for 5 hours. The cells were washed again and the serum-containing medium was added. Cells were harvested 30-72 hours later and extracted for cellular proteins. The CAT activity in the extracted protein was measured by using either [^14C] chloramphenicol or [^3H] acetyl CoA as a radiolabeled substrate. One activity unit of CAT is defined as nmole of radiolabeled substrate converted to the radiolabeled product in one minute. Protein content in the cell extracts was measured by the Bradford (BIORAD) assay.
Plasmid DNA, pUCSV2CAT, was used as a model compound for polyanions because it contains a structural gene for CAT. The efficiency of intracellular delivery can be readily assayed by the expression of CAT activity in the extracted proteins of the treated cells. Table 1 lists the CAT activity of mouse L929 cells which have been transfected with this plasmid DNA as mediated by various cationic lipid dispersions. In addition, the inhibitory activity of the pure cationic cholesterol derivatives on diolefin, phosphatidyl serine (PS), and Ca^2+stimulated protein kinase C was also measured. This activity was expressed as an IC50 which is the concentration at which 50% of PKC activity was inhibited.

Another series concerns the target protein kinase C (PKC). The series can be described thus: Mixed micelle assay of protein kinase C. The class given is biochemical, rat. The note with it: pure cationic cholesterol derivative; diolefin, phosphatidyl serine and Ca2+ stimulated PKC; read-out: PKC Inhibition IC50. The procedure:
As rapidly as possible, brains for 25 Sprague-Dawley rats (150-200 g) were removed, washed with 100 ml of 20 mM TRIS, 1 mM EDTA, 1 mM EGTA, pH 7.5, and homogenized in 150 ml of ice cold 20 mM TRIS, 10 mM EGTA, 2 mM EDTA, 10 mM DTT, 0.25 M sucrose, 2 mM PMSF and 100 μg/ml leupeptin, pH 7.5. The homogenate was immediately centrifuged at 100,000 g for 40 minutes at 4° C. in a Beckman Ti 50.2 rotor. The supernatant was applied to a 2.5×20 cm column of DEAE Sepharose (fast flow) containing 60 of resin equilibrated with 20 mM TRIS, 1 mM EDTA, 1 mM DTT, pH 7.5 (buffer A). The column was washed with 300 ml of buffer A and an additional 200 ml of buffer A containing 0.03 M KCl. Protein kinase C was eluted with a 500 ml continuous KCl gradient (0.03-0.3 M KCl). Fractions of 5 ml volumes were collected. Fractions showing calcium and phospholipid dependence were pooled; the salt concentration was adjusted to 1.5 KCl with the appropriate quantity of solid KCl. The crude sample containing 1.5 M KCl was stirred for 15 minutes and subsequently loaded onto a 1×10 cm column containing 9 ml Phenyl sepharose equilibrated with 1.5 M KCl in 20 mM TRIS, 0.5 mM EGTA, 1 mM DTT, pH 7.5 (buffer B). The column was washed with 90 ml of buffer B containing 1.5 M KCl. PKC was eluted with a 100 ml continuous KCl gradient (1.5-0 M KCl). Fractions of 3 ml volumes were collected. The column was washed with an additional 50 ml of buffer B. Most of the enzyme activity eluted during this stage. Fractions showing calcium and phospholipid dependence were pooled and concentrated to 4 ml using an Amicon ultrafiltration cell fitted with a YM-10 filter. The concentrated sample was loaded onto a 2.5×100 cm column containing 400 ml of Sephacryl S-200 HR beads equilibrated with buffer B containing 10% glycerol (buffer C). Fractions of 3 ml volumes were collected. About 150 ml of buffer was run through; PKC eluted very close to the column void volume. The fractions showing calcium and phospholipid dependence were pooled and loaded onto a 0.5×5 cm column containing 2.5 ml polylysine agarose equilibrated with buffer C. PKC was eluted with a 40 ml continuous KCl gradient (0-0.8 M KCl). Fractions of 1 ml volumes were collected. The first few active fractions were contaminated. The uncontaminated fractions were pooled, concentrated, and diluted with buffer C to remove the high salt content. After reconcentrating, the sample was divided into working portions, frozen in liquid nitrogen and stored at −80° C. Full activity was regained after rapid thawing. Trace impurities (116 k, 66 k, and 50 k Mr) could still be detected when the gel was silver stained heavily. The enzyme gave a specific activity of 200 nmoles phosphate incorporated per minute per milligram of protein when assayed for histone phosphorylation using the Triton mixed micelle assay with 6.5 mole % phosphatidylserine, 2.5 mole % DAG and 100 μM calcium present. Specific activities ranging from 30 nmoles/min/mg to 600 nmoles/min/mg have been observed for PKC using the Triton mixed micelle assay under the same conditions.
Phosphatidylserine and 1,2-diolefin with and without additive were dissolved in a solution of chloroform/methanol (2:1, v/v). Solvent was evaporated with a stream of nitrogen and last traces removed using a vacuum desiccator at 40° C. The lipid films were then solubilized by the addition of 3% Triton X-100, vortexed vigorously for 30 seconds and then incubated at 30° C. for 10 minutes to allow for equilibration. […]

A short description of series [2]: Formation of homogenous dispersion by sonication. The class given is physicochemical. The following applies: sonication in low ionic strength buffer. The procedure: as §1
None of the cationic cholesterol derivatives by themselves form stable homogenous dispersion by sonication in a low ionic strength buffer. When stable dispersions are desired, it was necessary to add an acidic or neutral phospholipid to form mixed lipid dispersion. […] In the case of compound XIV, a minimal ration of phosphatidyl choline (PC) or phosphatidyl ethanolamine (PE) to XIV=4:6 is required. Such non-cationic lipid used in the dispersion is called co-lipid.

Series [3] deals with mouse L929 cells. The series can be described thus: Transfection of L929 cells with pUCSV2CAT, CAT activity. The class given is cell-based. The following applies: molar ratio 1:1, L929 cells (FIG. 4).

Turning to “3β[N-(polyethyleneimine)-carbamoyl]cholesterol [XV]”, in the series with mouse L929 cells [1], the “Relative CAT Activity” value worked out at 11.

Regarding `CC(C)CCCC(C)C1CCC2C3CC=C4CC(C(=O)OC(CN(C)C)C[N+](C)(C)C)CCC4(C)C3CCC12C` (racemic) [Compound VI, 1-Dimethylamino-3-Trimethylammonio-DL-2-Propyl Cholesteryl Carboxylate Iodide Salt], at protein kinase C (PKC), the IC50 was 11 µM.

On to `CC(C)CCCC(C)C1CCC2C3CC=C4CC(OC(=O)CCC(=O)OC(CN(C)C)C[N+](C)(C)C)CCC4(C)C3CCC12C` (racemic) [Compound XI, 1-Dimethylamino-3-Trimethylammonio-DL-2-Propyl-Cholesteryl-3β-Oxysuccinate Iodide Salt], for which the concentration for half-maximal inhibition (IC50) on protein kinase C (PKC) came out at 15 µM.

Take `CC(C)CCCC(C)C1CCC2C3CC=C4CC(C(=O)NCCN(C)C)CCC4(C)C3CCC12C` (stereo not drawn) [Compound III, Cholesteryl-3β-Carboxyamidoethylenedimethylamine]: the melting point lay within 167 to 169 °C. The IC50 on protein kinase C (PKC) came to 258 µM. For the same compound, the “Relative CAT Activity” value with mouse L929 cells [1] is reported as 18.

For `CC(C)CCCC(C)C1CCC2C3CC=C4CC(C(=O)OC(CN(C)C)CN(C)C)CCC4(C)C3CCC12C` (stereo not drawn) [Compound V, 1,3-Bis-Dimethylamino-2-Propyl-Cholesteryl-3β-Carboxylate], at protein kinase C (PKC), the IC50 turned out to be 643 µM. Besides, the “Relative CAT Activity” value with mouse L929 cells [1] is 2.

With `CC(C)CCCC(C)C1CCC2C3CC=C4CC(C(=O)NCCN)CCC4(C)C3CCC12C` (stereo not drawn) [Compound VII, Cholesteryl-3β-Carboxyamidoethyleneamine], the IC50 at protein kinase C (PKC) is 246 µM.

Take `CC(C)CCCC(C)C1CCC2C3CC=C4CC(OC(=O)CCC(=O)OC(CN(C)C)CN(C)C)CCC4(C)C3CCC12C` (stereo not drawn) [Compound X, 1,3-Bi-Dimethylamino-2-Propyl-Cholesteryl-3β-Oxysuccinate]: the IC50 at protein kinase C (PKC) was 408 µM. Besides, the “Relative CAT Activity” value in the series with mouse L929 cells [1] turned out to be 0.5.

On to `CC(C)CCCC(C)C1CCC2C3CC=C4CC(OC(=O)NCCN(C)C)CCC4(C)C3CCC12C` (stereo not drawn) [Compound XIV, 3β[N-(N′,N′-dimethylaminoethane)-carbamoyl]cholesterol], for which the IC50 at protein kinase C (PKC) was more than 1000 µM. For the same compound, in the series with mouse L929 cells [1], the “Relative CAT Activity” value came to 75.

With `CC(C)CCCC(C)C1CCC2C3CC=C4CC(C(=O)NCC[N+](C)(C)C)CCC4(C)C3CCC12C` (stereo not drawn) [IV, Cholesteryl-3β-Carboxyamidoethylenetrimethylammonium Iodide], at protein kinase C (PKC), the IC50 stood at 12 µM.

As for `CC(C)CCCC(C)C1CCC2C3CC=C4CC(OC(=O)CCC(=O)NCC[N+](C)(C)C)CCC4(C)C3CCC12C` (stereo not drawn) [IX, Cholesteryl-3β-Oxysuccinamidoethylenetrimethylammonium Iodide], on protein kinase C (PKC), the 50% inhibitory concentration (IC50) amounted to 59 µM. Further, the “Relative CAT Activity” value in the series with mouse L929 cells [1] is on record as 50.

On to `CC(C)CCCC(C)C1CCC2C3CC=C4CC(OC(=O)CCC(=O)NCCN(C)C)CCC4(C)C3CCC12C` (stereo not drawn) [VIII, Cholesteryl-3β-oxysuccinamidoethylenedimethylamine], for which the IC50 on protein kinase C (PKC) turned out to be 191 µM. Besides, the “Content of cationic lipid in DOPE dispersion at maximal DNA delivery activity” value in the series on mouse L929 cells [1] (DOPE co-lipid, L929 cells (FIG. 5)) is 20-50%. Moreover, the “DNA delivery activity of mixed dispersion” value in the series with mouse L929 cells [1] (co-lipid DOPE, molar ratio 1:1, L929 cells (FIG. 4)) was “only DOPE supported the delivery activity”; with mouse L929 cells [3] (acidic co-lipids PS and PG), “None of the acidic lipids, such as PS and phosphatidylglycerol (PG) showed any activity”; in the series with mouse L929 cells [3] (other neutral co-lipids DOPC, N-methyl-DOPE, N,N-dimethyl DOPE), “little or no activity”. For the same compound, the “Relative CAT Activity” value with mouse L929 cells [1] is listed as 100. In addition, the “Minimal ratio of co-lipid (PC or PE) to cationic lipid required to form a uniform dispersion” value in series [2] was 1 part of PC or PE and 9 parts of compound VIII.

As to `CC(C)CCCC(C)C1CCC2C3CC=C4CC(OC(=O)CCC(=O)OCCN(C)CCN(C)C)CCC4(C)C3CCC12C` (stereo not drawn) [XII, 2-{[2-(dimethylamino)ethyl]methylamino}ethyl-Cholesteryl-3β-Oxysuccinate], the melting point lay within 50 to 52 °C. Besides, the IC50 on protein kinase C (PKC) came to 164 µM. Further, the “Relative CAT Activity” value with mouse L929 cells [1] is recorded as 19.

Take `CC(C)CCCC(C)C1CCC2C3CC=C4CC(OC(=O)CCC(=O)OCCN(C)CC[N+](C)(C)C)CCC4(C)C3CCC12C` (stereo not drawn) [XIII, 2-{[2-Trimethylammonio]ethylmethylamino}ethyl-Cholesteryl-3β-Oxysuccinate Iodine Salt]: the IC50 at protein kinase C (PKC) worked out at 20 µM.
